Measurements as given in patent US12435044B2, “Pyridazinone herbicides and pyridazinone intermediates used to prepare a herbicide” (FMC Corporation, priority 2018, dated 2025).

Columns and labels:
Type in all cases: in vivo
oat, wild (Avena fatua) = experiment: Test C pre-/postemergence greenhouse test; details: scale 0 to 100
Summary of the method: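 Visual 0–100 rating (0 = no effect, 100 = complete control) against controls, 13 to 21 d after treatment in greenhouse. Preemergence: seeds in silt loam soil. Postemergence: plants at 1- to 4-leaf stage (2 to 18 cm) in peat-based medium; compounds in surfactant-containing solvent mixture.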

[1] = test system: field poppy (Papaver rhoeas); experiment: Test C postemergence greenhouse test; details: scale 0 to 100
From the text: Seeds of plant species selected from blackgrass (Alopecurus myosuroides), ryegrass, Italian (Lolium multiflorum), wheat, winter (winter wheat, Triticum aestivum), galium (catchweed bedstraw, Galium aparine), corn (Zea mays), crabgrass, large (Digitaria sanguinalis), foxtail, giant (Setaria faberii), johnsongrass (Sorghum halepense), lambsquarters (Chenopodium album), morningglory (Ipomoea coccinea), nutsedge, yellow (Cyperus esculentus), pigweed (Amaranthus retroflexus), ragweed (common ragweed, Ambrosia elatior), soybean (Glycine max), barnyardgrass (Echinochloa crus-galli), oilseed rape (Brassica napus), waterhemp (common waterhemp, Amaranthus rudis), pigweed, palmer (Amaranthus palmeri), kochia (Kochia scoparia), oat, wild (Avena fatua), surinam grass (Brachiaria decumbens), windgrass (Apera spica-venti), poinsettia, wild (Euphorbia heterophylla) and velvetleaf (Abutilon theophrasti) were planted into a silt loam soil and treated preemergence with test chemicals formulated in a non-phytotoxic solvent mixture which included a surfactant.
At the same time, plants selected from these crop and weed species and also chickweed (common chickweed, Stellaria media), buckwheat, wild (Polygonum convolvulus), mustard, wild (Sinapis arvensis), field poppy (Papaver rhoeas), field violet (Viola arvensis), nightshade (eastern black nightshade, Solanum ptycanthum), speedwell (bird's-eye speedwell, Veronica persica), horseweed (Conyza canadensis), cutleaf geranium (Geranium dissectum), and Canada thistle (Cirsium arvense) were planted in pots containing Redi-Earth® planting medium (Scotts Company, 14111 Scottslawn Road, Marysville, Ohio 43041) comprising spaghnum peat moss, vermiculite, wetting agent and starter nutrients and treated with postemergence applications of test chemicals formulated in the same manner. Plants ranged in height from 2 to 18 cm (1- to 4-leaf stage) for postemergence treatments. Treated plants and controls were maintained in a greenhouse for 13 to 21 d, after which time all species were compared to controls and visually evaluated. Plant response ratings, summarized in Table C-1 (postemergence) and C-2 (preemergence), are based on a scale of 0 to 100 where 0 is no effect and 100 is complete control. A dash (-) response means no test result.

[2] = test system: wheat (Triticum aestivum); experiment: Test A postemergence greenhouse test
From the text: (§1) Seeds of plant species selected from barnyardgrass (Echinochloa crus-galli), kochia (Kochia scoparia), ragweed (common ragweed, Ambrosia elatior), ryegrass, Italian (Lolium multiflorum), foxtail, giant (Setaria faberii), foxtail, green (Setaria viridis) and pigweed (Amaranthus retroflexus) were planted into a blend of loam soil and sand and treated preemergence with a directed soil spray using test chemicals formulated in a non-phytotoxic solvent mixture which included a surfactant.
(§2) At the same time, plants selected from these weed species and also wheat (Triticum aestivum), corn (Zea mays), blackgrass (Alopecurus myosuroides) and galium (catchweed bedstraw, Galium aparine) were planted in pots containing the same blend of loam soil and sand and treated with postemergence applications of test chemicals formulated in the same manner. Plants ranged in height from 2 to 10 cm and were in the one- to two-leaf stage for the postemergence treatment. Treated plants and untreated controls were maintained in a greenhouse for approximately 10 d, after which time all treated plants were compared to untreated controls and visually evaluated for injury. Plant response ratings, summarized in Table A, are based on a 0 to 100 scale where 0 is no effect and 100 is complete control. A dash (-) response means no test result.

[3] = test system: galium (catchweed bedstraw, Galium aparine); experiment: Test A postemergence greenhouse test
From the text: as §1, §2

corn (Zea mays) = experiment: Test A postemergence greenhouse test
From the text: as §1, §2

[4] = test system: blackgrass (Alopecurus myosuroides); experiment: Test A postemergence greenhouse test
From the text: as §1, §2

kochia (Kochia scoparia) = experiment: Test A pre-/postemergence greenhouse test
From the text: as §1, §2

[5] = test system: barnyardgrass (Echinochloa crus-galli); experiment: Test A pre-/postemergence greenhouse test
From the text: as §1, §2

[6] = test system: pigweed (Amaranthus retroflexus); experiment: Test A pre-/postemergence greenhouse test
From the text: as §1, §2

[7] = test system: ryegrass, Italian (Lolium multiflorum); experiment: Test A pre-/postemergence greenhouse test
From the text: as §1, §2

[8] = test system: ragweed (common ragweed, Ambrosia elatior); experiment: Test A pre-/postemergence greenhouse test
From the text: as §1, §2

## Cc1ccc2ccc(F)cc2c1-c1c(O)c(Cl)nn(C)c1=O [Cpd. No. 21]
oat, wild (Avena fatua); Postemergence, 16 g ai/ha
  Plant response rating, Oat, Wild: 95
oat, wild (Avena fatua); Postemergence, 31 g ai/ha
  Plant response rating, Oat, Wild: 98
oat, wild (Avena fatua); Postemergence, 62 g ai/ha
  Plant response rating, Oat, Wild: 99
oat, wild (Avena fatua); Postemergence, 125 g ai/ha
  Plant response rating, Oat, Wild: 100
oat, wild (Avena fatua); Preemergence, 31 g ai/ha
  Plant response rating, Oat, Wild: 70
oat, wild (Avena fatua); Preemergence, 61 g ai/ha
  Plant response rating, Oat, Wild: 45
oat, wild (Avena fatua); Preemergence, 62 g ai/ha
  Plant response rating, Oat, Wild: 85
oat, wild (Avena fatua); Preemergence, 125 g ai/ha
  Plant response rating, Oat, Wild: 85
[1]; 16 g ai/ha
  Plant response rating, Field Poppy: 60
[1]; 31 g ai/ha
  Plant response rating, Field Poppy: 70
[1]; 62 g ai/ha
  Plant response rating, Field Poppy: 75
[1]; 125 g ai/ha
  Plant response rating, Field Poppy: 98
[2]; 31 g ai/ha
  Plant response rating (0 to 100 scale): 50
[2]; 125 g ai/ha
  Plant response rating (0 to 100 scale): 80
[3]; 31 g ai/ha
  Plant response rating (0 to 100 scale): 100
[3]; 125 g ai/ha
  Plant response rating (0 to 100 scale): 100
Corn (Zea mays); 31 g ai/ha
  Plant response rating (0 to 100 scale): 10
Corn (Zea mays); 125 g ai/ha
  Plant response rating (0 to 100 scale): 20
[4]; 31 g ai/ha
  Plant response rating (0 to 100 scale): 50
[4]; 125 g ai/ha
  Plant response rating (0 to 100 scale): 70
Kochia (Kochia scoparia); Postemergence, 31 g ai/ha
  Plant response rating (0 to 100 scale): 80
Kochia (Kochia scoparia); Postemergence, 125 g ai/ha
  Plant response rating (0 to 100 scale): 90
Kochia (Kochia scoparia); Preemergence, 31 g ai/ha
  Plant response rating (0 to 100 scale): 50
Kochia (Kochia scoparia); Preemergence, 125 g ai/ha
  Plant response rating (0 to 100 scale): 100
[5]; Postemergence, 31 g ai/ha
  Plant response rating (0 to 100 scale): 80
[5]; Postemergence, 125 g ai/ha
  Plant response rating (0 to 100 scale): 90
[5]; Preemergence, 31 g ai/ha
  Plant response rating (0 to 100 scale): 90
[5]; Preemergence, 125 g ai/ha
  Plant response rating (0 to 100 scale): 100
[6]; Postemergence, 31 g ai/ha
  Plant response rating (0 to 100 scale): 100
[6]; Postemergence, 125 g ai/ha
  Plant response rating (0 to 100 scale): 100
[6]; Preemergence, 31 g ai/ha
  Plant response rating (0 to 100 scale): 100
[6]; Preemergence, 125 g ai/ha
  Plant response rating (0 to 100 scale): 100
[7]; Postemergence, 31 g ai/ha
  Plant response rating (0 to 100 scale): 90
[7]; Postemergence, 125 g ai/ha
  Plant response rating (0 to 100 scale): 100
[7]; Preemergence, 31 g ai/ha
  Plant response rating (0 to 100 scale): 80
[7]; Preemergence, 125 g ai/ha
  Plant response rating (0 to 100 scale): 100
[8]; Postemergence, 31 g ai/ha
  Plant response rating (0 to 100 scale): 100
[8]; Postemergence, 125 g ai/ha
  Plant response rating (0 to 100 scale): 100
[8]; Preemergence, 31 g ai/ha
  Plant response rating (0 to 100 scale): 100
[8]; Preemergence, 125 g ai/ha
  Plant response rating (0 to 100 scale): 100
